Results taken from patent US20090197960A1, “Method of Inhibiting Polyneuropathic Pain with 3-(2-Dimethylaminomethylcyclohexyl) Phenol” (Gruenenthal GmbH, priority 2008, published 2009).

Key:
[1] = tested on: cold allodynia in mononeuropathic pain; test: Mononeuropathic pain model according to Bennett (ischial nerve ligatures), cold allodynia on cold metal plate at 4° C.; type: in vivo, Sprague Dawley rats
Experimental: (§1) Male Sprague Dawley rats (140-180 g, Janvier, France) were kept under standard conditions (06.00-18.00 light, 18.00-06.00 darkness; 20-24° C. room temperature, 35-70% relative humidity; tap water and standard feed (ad libitum)) in groups of five animals in Macrolon type 4 cages.
The investigation was carried out according to Bennett et al., Pain, 1988, 33, 87-107.
Under pentobarbital anaesthesia (Narcocen, 60 mg/kg i.p., Merial GmbH, Germany), four loose ligatures were placed unilaterally on the right ischial nerve. On the paw innervated by the damaged nerve, the animals developed hypersensitivity which, after one week's convalescence, was quantified over a period of approx. four weeks using a cold metal plate at 4° C. (cold allodynia). The animals were observed on this plate for a period of 2 min. and the number of withdrawal responses by the damaged paw was measured. The action of the substance, relative to the preliminary value before administration of the substance, was determined over a period of one hour at four different times (15, 30, 45, 60 min after administration). The inhibition of cold allodynia at the individual measurement times was stated in percent relative to the individual pretest (% MPE), with the pretest corresponding to 0% MPE and complete inhibition (0 withdrawal responses per 2 min) to 100% MPE. Group size was n=10. The significance of a substance's action was determined on the basis of the percentage inhibition values relative to the vehicle group by bifactorial analysis of variance and post hoc Bonferroni analysis, the ED50 value by linear regression analysis for the individual measurement points or the area under the curve (AUC).

[2] = tested on: cold allodynia in polyneuropathic pain; test: Polyneuropathic pain model according to Authier (vincristine-induced), cold allodynia with acetone drop; type: in vivo, Sprague Dawley rats
Experimental: as §1
The investigation was carried out according to Authier et al., Neuroreport, 1999, 10, 965-8.
Three days after the final vincristine treatment, the animals had developed hypersensitivity to cold (cold allodynia) which continued over a period of three weeks. For testing, the animals were placed under a plastic cover on a grating and, after habituation, cold allodynia was quantified. To this end, a drop of acetone (10 μl) was carefully applied onto a hind paw with a syringe and a thin plastic tube. The number of induced withdrawal responses (shaking, stamping or licking) was recorded over a period of 30 sec. The cumulative number from 5 stimulations (at 5 min intervals from one another) was determined before and at different times after administration of the substance or the vehicle. The percentage inhibition value (% MPE) was determined in comparison with the particular pretest (0% MPE) and with the weekly vehicle control group (100% MPE=0 withdrawal responses). The size of the group was usually n=10. The significance of a substance's action was determined on the basis of the percentage inhibition value relative to the vehicle group by means of bifactorial analysis of variance and post hoc Bonferroni analysis, the ED50 value by linear regression analysis for the individual measurement points.

[3] = tested on: pain in diabetic polyneuropathy; details: number of patients treated for one patient to experience more than 50% pain relief; cited from earlier work
[4] = tested on: pain in post-herpetic neuralgia; details: number of patients treated for one patient to experience more than 50% pain relief; cited from earlier work

For `CN(C)C[C@@H]1CCCC[C@H]1c1cccc(O)c1` [(1R,2R)-3-(2-Dimethylaminomethylcyclohexyl)phenol], the “inhibition of cold allodynia (in words)” value ([1]; 10-31.6 mg/kg i.p.) was “dose-dependent inhibition”, the maximum effect ([1]; 15 min after administration of 31.6 mg/kg) was 80 % MPE and the ED50 ([1]; Rattus norvegicus, ip, 0.5 h, 30 min after administration, i.p., mononeuropathic pain model, read-out: ED50 value (95% VB)) was 17.6 mg/kg. For the same compound, the “inhibition of cold allodynia, Mean” value ([1]; dose 10 (mg/kg i.p.), 15 min after administration) was 22.16 % MPE, the “inhibition of cold allodynia, Mean” value ([1]; dose 10 (mg/kg i.p.), 30 min after administration) was 20.93 % MPE and the “inhibition of cold allodynia, Mean” value ([1]; dose 10 (mg/kg i.p.), 45 min after administration) was 8.60 % MPE. The “inhibition of cold allodynia, Mean” value ([1]; dose 10 (mg/kg i.p.), 60 min after administration) was 9.23 % MPE, the “inhibition of cold allodynia, Mean” value ([1]; dose 21.5 (mg/kg i.p.), 15 min after administration) was 56.62 % MPE and the “inhibition of cold allodynia, Mean” value ([1]; dose 21.5 (mg/kg i.p.), 30 min after administration) was 61.06 % MPE. For the same compound, the “inhibition of cold allodynia, Mean” value ([1]; dose 21.5 (mg/kg i.p.), 45 min after administration) was 34.96 % MPE, the “inhibition of cold allodynia, Mean” value ([1]; dose 21.5 (mg/kg i.p.), 60 min after administration) was 16.33 % MPE and the “inhibition of cold allodynia, Mean” value ([1]; dose 31.6 (mg/kg i.p.), 15 min after administration) was 80.03 % MPE. The “inhibition of cold allodynia, Mean” value ([1]; dose 31.6 (mg/kg i.p.), 30 min after administration) was 79.15 % MPE, the “inhibition of cold allodynia, Mean” value ([1]; dose 31.6 (mg/kg i.p.), 45 min after administration) was 61.68 % MPE and the “inhibition of cold allodynia, Mean” value ([1]; dose 31.6 (mg/kg i.p.), 60 min after administration) was 21.18 % MPE. The “minimally active dose at which a statistically significant inhibition was obtained” value ([1]; i.p., mononeuropathic pain model) was 21.5 mg/kg, the “dose of significant inhibition, mononeuropathic versus polyneuropathic pain model” value ([2]; 21.5 mg/kg i.p. versus 4.64 mg/kg i.p.) was “more than four times higher” and the “inhibition of cold allodynia (in words)” value ([2]; 10-21.5 mg/kg i.p.) was “dose-dependent inhibition”. For the same compound, the maximum effect ([2]; 30 min after administration of 21.5 mg/kg) was 74 % MPE, the ED50 ([2]; Rattus norvegicus, ip, 0.5 h, 30 min after administration, i.p., polyneuropathic pain model, read-out: ED50 value (95% VB)) was 5.7 mg/kg and the “efficacy in polyneuropathic pain relative to mononeuropathic pain in an animal model” value ([2]; animal model) was “approx. four times greater”. For the same compound, the “inhibition of cold allodynia, Mean” value ([2]; dose 2.15 (mg/kg i.p.), 30 min) was 48.4 % MPE, the “inhibition of cold allodynia, Mean” value ([2]; dose 2.15 (mg/kg i.p.), 180 min) was −37.7 % MPE and the “inhibition of cold allodynia, Mean” value ([2]; dose 4.64 (mg/kg i.p.), 30 min) was 67.9 % MPE. For the same compound, the “inhibition of cold allodynia, Mean” value ([2]; dose 4.64 (mg/kg i.p.), 180 min) was 22.6 % MPE, the “inhibition of cold allodynia, Mean” value ([2]; dose 10 (first dose line of the table, i.p.), 30 min) was −28.9 % MPE and the “inhibition of cold allodynia, Mean” value ([2]; dose 10 (first dose line of the table, i.p.), 180 min) was −22.2 % MPE. For the same compound, the “inhibition of cold allodynia, Mean” value ([2]; dose 10 (fourth dose line of the table, mg/kg i.p.), 30 min) was 58.7 % MPE, the “inhibition of cold allodynia, Mean” value ([2]; dose 10 (fourth dose line of the table, mg/kg i.p.), 180 min) was 20.8 % MPE and the “inhibition of cold allodynia, Mean” value ([2]; dose 21.5 (mg/kg i.p.), 30 min) was 74.2 % MPE. The “inhibition of cold allodynia, Mean” value ([2]; dose 21.5 (mg/kg i.p.), 180 min) was 15.2 % MPE and the “minimally active dose at which a statistically significant inhibition was obtained” value ([2]; i.p., polyneuropathic pain model) was 4.64 mg/kg.
In the case of `CN(C)CCCN1c2ccccc2CCc2ccccc21` [Imipramine], the “NNT (Numbers Needed to Treat)” value [3] is given as 1.4.
In the case of `NC(=O)N1c2ccccc2C=Cc2ccccc21` [Carbamazepine], the “NNT (Numbers Needed to Treat)” value [3] is given as 3.3.
For `COc1cccc(C2(O)CCCCC2CN(C)C)c1` (stereo not shown) [Tramadol], the “NNT (Numbers Needed to Treat)” value [3] is listed as 3.4.
For `N[C@@H](Cc1ccc(O)c(O)c1)C(=O)O` [L-Dopa], the “NNT (Numbers Needed to Treat)” value [3] is listed as 3.4.
In the case of `COc1ccc2c(c1)[C@]13CCCC[C@@H]1[C@H](C2)N(C)CC3` [Oextromethorphan], the “NNT (Numbers Needed to Treat)” value [3] is given as 1.9.
For `COc1ccc2c3c1O[C@H]1C(=O)CC[C@@]4(O)[C@@H](C2)N(C)CC[C@]314` [Oxycodone], the “NNT (Numbers Needed to Treat)” value [4] is listed as 2.5.
For `COc1cc(CNC(=O)CCCC/C=C/C(C)C)ccc1O` [Capsaicin], the “NNT (Numbers Needed to Treat)” value [3] is given as 5.9 and the “NNT (Numbers Needed to Treat)” value [4] is given as 5.3.
For `Cc1cccc(C)c1OCC(C)N` (stereo not shown) [Mexiletine], the “NNT (Numbers Needed to Treat)” value [3] is given as 10.0.
In the case of `NCC1(CC(=O)O)CCCCC1` [Gabapentin], the “NNT (Numbers Needed to Treat)” value [3] is listed as 3.7 and the “NNT (Numbers Needed to Treat)” value [4] is listed as 3.2.
